Values after ≈ are worked out from the molar mass of the structure shown.
How the values were obtained:
Type in all cases: functional
Penicillium chrysogenum = test: Antifungal activity against Penicillium chrysogenum MTCC 161 after 24 to 48 hr by tube dilution method
Pseudomonas fluorescens [1] = test: Antibacterial activity against Pseudomonas fluorescens MTCC 2421 at 1250 ug/ml after 48 hr by cup-plate method; details: MTCC 2421, 48 h, read-out: DIZ
Pseudomonas fluorescens [2] = test: Antibacterial activity against Pseudomonas fluorescens MTCC 2421 at 250 ug/ml after 48 hr by cup-plate method; details: MTCC 2421, 48 h, read-out: DIZ
Aspergillus niger [3] = test: Antifungal activity against Aspergillus niger MTCC 2546 at 1250 ug/ml after 48 hr by cup-plate method; details: MTCC 2546, 48 h, read-out: DIZ
Escherichia coli [4] = test: Antibacterial activity against Escherichia coli MTCC 1573 at 100 ug/ml after 48 hr by cup-plate method; details: MTCC 1573, 48 h, read-out: DIZ
Aspergillus niger [5] = test: Antifungal activity against Aspergillus niger MTCC 2546 at 100 ug/ml after 48 hr by cup-plate method; details: MTCC 2546, 48 h, read-out: DIZ
Pseudomonas fluorescens [6] = test: Antibacterial activity against Pseudomonas fluorescens MTCC 2421 after 24 to 48 hr by tube dilution method
Bacillus subtilis [7] = test: Antibacterial activity against Bacillus subtilis MTCC 441 after 24 to 48 hr by tube dilution method
Staphylococcus aureus [8] = test: Antibacterial activity against Staphylococcus aureus MTCC 1430 after 24 to 48 hr by tube dilution method
Bacillus subtilis [9] = test: Antibacterial activity against Bacillus subtilis MTCC 441 at 1250 ug/ml after 48 hr by cup-plate method; details: MTCC 441, 48 h, read-out: DIZ
Bacillus subtilis [10] = test: Antibacterial activity against Bacillus subtilis MTCC 441 at 250 ug/ml after 48 hr by cup-plate method; details: MTCC 441, 48 h, read-out: DIZ
Pseudomonas aeruginosa [11] = test: Antibacterial activity against Pseudomonas aeruginosa MTCC 424 at 1250 ug/ml after 48 hr by cup-plate method; details: MTCC 424, 48 h, read-out: DIZ
Escherichia coli [12] = test: Antibacterial activity against Escherichia coli MTCC 1573 at 750 ug/ml after 48 hr by cup-plate method; details: MTCC 1573, 48 h, read-out: DIZ
Pseudomonas aeruginosa [13] = test: Antibacterial activity against Pseudomonas aeruginosa MTCC 424 at 500 ug/ml after 48 hr by cup-plate method; details: MTCC 424, 48 h, read-out: DIZ
Pseudomonas aeruginosa [14] = test: Antibacterial activity against Pseudomonas aeruginosa MTCC 424 at 1000 ug/ml after 48 hr by cup-plate method; details: MTCC 424, 48 h, read-out: DIZ
Bacillus pumilus = test: Antibacterial activity against Bacillus pumilus MTCC 1456 at 1000 ug/ml after 48 hr by cup-plate method; details: MTCC 1456, 48 h, read-out: DIZ
Pseudomonas fluorescens [15] = test: Antibacterial activity against Pseudomonas fluorescens MTCC 2421 at 1000 ug/ml after 48 hr by cup-plate method; details: MTCC 2421, 48 h, read-out: DIZ
Escherichia coli [16] = test: Antibacterial activity against Escherichia coli MTCC 1573 after 24 to 48 hr by tube dilution method
Aspergillus niger [17] = test: Antifungal activity against Aspergillus niger MTCC 2546 at 250 ug/ml after 48 hr by cup-plate method; details: MTCC 2546, 48 h, read-out: DIZ
Staphylococcus aureus [18] = test: Antibacterial activity against Staphylococcus aureus MTCC 1430 at 750 ug/ml after 48 hr by cup-plate method; details: MTCC 1430, 48 h, read-out: DIZ
Bacillus subtilis [19] = test: Antibacterial activity against Bacillus subtilis MTCC 441 at 500 ug/ml after 48 hr by cup-plate method; details: MTCC 441, 48 h, read-out: DIZ
Bacillus subtilis [20] = test: Antibacterial activity against Bacillus subtilis MTCC 441 at 1000 ug/ml after 48 hr by cup-plate method; details: MTCC 441, 48 h, read-out: DIZ
Pseudomonas fluorescens [21] = test: Antibacterial activity against Pseudomonas fluorescens MTCC 2421 at 500 ug/ml after 48 hr by cup-plate method; details: MTCC 2421, 48 h, read-out: DIZ
Pseudomonas aeruginosa [22] = test: Antibacterial activity against Pseudomonas aeruginosa MTCC 424 at 250 ug/ml after 48 hr by cup-plate method; details: MTCC 424, 48 h, read-out: DIZ
Escherichia coli [23] = test: Antibacterial activity against Escherichia coli MTCC 1573 at 1250 ug/ml after 48 hr by cup-plate method; details: MTCC 1573, 48 h, read-out: DIZ
Escherichia coli [24] = test: Antibacterial activity against Escherichia coli MTCC 1573 at 250 ug/ml after 48 hr by cup-plate method; details: MTCC 1573, 48 h, read-out: DIZ
Escherichia coli [25] = test: Antibacterial activity against Escherichia coli MTCC 1573 at 500 ug/ml after 48 hr by cup-plate method; details: MTCC 1573, 48 h, read-out: DIZ
Micrococcus luteus = test: Antibacterial activity against Micrococcus luteus MTCC 1538 at 1250 ug/ml after 48 hr by cup-plate method; details: MTCC 1538, 48 h, read-out: DIZ

MIC (Penicillium chrysogenum): 50 µg/mL (≈ 139 µM)
MIC (Pseudomonas fluorescens [6]): 200 µg/mL (≈ 555 µM)
MIC (Bacillus subtilis [7]): 15 µg/mL (≈ 41.6 µM)
MIC (Staphylococcus aureus [8]): 50 µg/mL (≈ 139 µM)
MIC (Escherichia coli [16]): 50 µg/mL (≈ 139 µM)
Compound: NC(=O)N1N=C(c2cccc3ccccc23)CC1c1ccc([N+](=O)[O-])cc1 (stereo not drawn)
zone of inhibition at 1250 µg/mL (Pseudomonas fluorescens [1]): 14 mm
zone of inhibition at 250 µg/mL (Pseudomonas fluorescens [2]): 9 mm
zone of inhibition at 1250 µg/mL (Aspergillus niger [3]): 19 mm
zone of inhibition at 100 µg/mL (Escherichia coli [4]): 9 mm
zone of inhibition at 100 µg/mL (Aspergillus niger [5]): 10 mm
zone of inhibition at 1250 µg/mL (Bacillus subtilis [9]): 16 mm
zone of inhibition at 250 µg/mL (Bacillus subtilis [10]): 12 mm
zone of inhibition at 1250 µg/mL (Pseudomonas aeruginosa [11]): 15 mm
zone of inhibition at 750 µg/mL (Escherichia coli [12]): 12 mm
zone of inhibition at 500 µg/mL (Pseudomonas aeruginosa [13]): 11 mm
zone of inhibition at 1000 µg/mL (Pseudomonas aeruginosa [14]): 13 mm
zone of inhibition at 1000 µg/mL (Bacillus pumilus): 11 mm
zone of inhibition at 1000 µg/mL (Pseudomonas fluorescens [15]): 12 mm
zone of inhibition at 250 µg/mL (Aspergillus niger [17]): 11 mm
zone of inhibition at 750 µg/mL (Staphylococcus aureus [18]): 11 mm
zone of inhibition at 500 µg/mL (Bacillus subtilis [19]): 13 mm
zone of inhibition at 1000 µg/mL (Bacillus subtilis [20]): 15 mm
zone of inhibition at 500 µg/mL (Pseudomonas fluorescens [21]): 10 mm
zone of inhibition at 250 µg/mL (Pseudomonas aeruginosa [22]): 10 mm
zone of inhibition at 1250 µg/mL (Escherichia coli [23]): 15 mm
zone of inhibition at 250 µg/mL (Escherichia coli [24]): 10 mm
zone of inhibition at 500 µg/mL (Escherichia coli [25]): 11 mm
zone of inhibition at 1250 µg/mL (Micrococcus luteus): 11 mm
